{"source": "patent US10139394B2", "about": "“Method for controlling cancer metastasis or cancer cell migration by modulating the cellular level of lysyl tRNA synthetase” (Medicinal Bioconvergence Research Center, priority 2008, dated 2018)", "key": {"[1]": {"test_system": "phosphorylation of KRS", "assay": "Laminin-induced phosphorylation of Myc-KRS, immunoprecipitation and immunoblot with anti-p-Thr, -Ser, -Tyr antibodies", "type": "cell-based, human", "settings": "Myc-KRS transfected A549 cells; laminin treatment; FIG. 10", "experimental": "In FIG. 7, A549 cells were treated with laminin (10 ug/ml) and the level of 67LR, 37LRP and KRS was determined by Western blotting at the indicated times. Hsp90 and Cadherin were used as markers for cytoplasm and membrane, respectively. In FIG. 8, A549 cells untreated or treated with laminin for 1 h were subjected to immunofluorescence staining with anti-67LR (MLuC5, Santacruz, sc-59732) (red) and -KRS antibodies (green). In FIG. 9, A549 cells were treated with U73122 (U), staurosporin (ST) and LY294002 (LY) that inhibit PLC-gamma, PKC and PI3K, respectively, for 3 hr, then with laminin for 1 hr and checked how these kinase inhibitors would affect the membrane and cytoplasmic level of 67LR and KRS. In FIG. 10, A549 cells were transfected with Myc-KRS and incubated for 24 h. The cells were treated with the indicated chemicals and then with laminin as above. Myc-KRS was immunoprecipitated, and immunoblotted with anti-p-Thr, -Ser, and -Tyr antibodies. In FIG. 11, A549 cells were transfected with Myc-KRS and cultivated for 24 hr. The transfectants were pre-treated with LY294002 for 3 hr and then treated with laminin for 1 h. Myc-KRS was immunoprecipitated and co-precipitation of 67LR was determined by Western blotting. […] EPRS (glutamyl-prolyl-tRNA synthetase) was immunoprecipitated with its specific antibody (AbCam), and co-immunoprecipitation of KRS was determined by Western blotting (upper). […]"}, "[2]": {"test_system": "KRS and 67LR", "assay": "Co-immunoprecipitation of KRS with 67LR", "type": "cell-based, human", "settings": "10 ug/ml of laminin for 1 hr; immunoprecipitation with 67LR antibody; FIG. 6", "experimental": "FIGS. 1 to 6 show specific interaction between human KRS and laminin receptor. In FIG. 1, the interaction between full-length human KRS and 37LRP/p40 was determined by yeast two hybrid assay. AIMP1 and AIMP2, the two components of the multi-ARS complex, were used as positive and negative control, respectively. The positive interaction is indicated by blue colony formation on yeast medium containing X-gal. In FIG. 2, 37LRP was synthesized by in vitro translation in the presence of [^35S] methionine and subjected to pull-down with GST-KRS or GST. 37LRP co-precipitated with GST-KRS was detected by autoradiography. In FIG. 3, The peptide regions of KRS and 37LRP involved in their interaction was determined by yeast two hybrid assay as above. […] Myc-KRS was immunoprecipitated with anti-Myc antibody and co-precipitated 67LR and 37LRP were determined by immunoblotting. […] The cells were separated to cytoplasmic and membrane fractions and immunoprecipitated with anti-Myc antibody and co-precipitation of 37LRP and 67LR was determined by Western blotting. […]\nIn FIG. 7, A549 cells were treated with laminin (10 ug/ml) and the level of 67LR, 37LRP and KRS was determined by Western blotting at the indicated times. […] Myc-KRS was immunoprecipitated and co-precipitation of 67LR was determined by Western blotting. […]"}}}
{"substance": "laminin: laminin (Engelbreth-Holm-Swarm murine sarcoma) from Sigma", "values": [{"measurement": "phosphorylated KRS at threonine and serine", "setting": "[1]", "result": "increased"}, {"measurement": "binding of 67LR and KRS", "setting": "[2]", "result": "increased"}]}
